Measured values reported in PMC5382548 (Scientific Reports, 2015).

Assays:
[1] = system: p21^KRAS protein in HCT116 cells; assay: p21KRAS protein immunoblot, HCT116; assay type: cell-based, human; details: IC50 concentration, 72 h; cell line not given
Experimental: (a) KRAS mRNA steady-state expression was evaluated by Taqman Real-time RT-PCR using specific Taqman Assays for KRAS and β-Actin for normalization. KRAS mRNA steady-state expression levels were calculated by the ΔΔCt method, using DMSO (vehicle control) for calibration; and (b) KRAS protein steady-state expression evaluated by immunoblot relative to control (DMSO vehicle) Results are expressed as mean ± SEM of at least three independent experiments; *p < 0.05 and §p < 0.01 from DMSO (vehicle control).
In agreement with its reported capacity to accumulate in cytoplasm, bind to UTR1 and UTR2 RNA G4[14][20] and inhibit NRAS translation, TMPyP4 reduced the levels of p21^KRAS by ~75% in HCT116 cells. […]
Samples were homogenized in ice-cold 1:1 solution of buffer A [10 mm Tris•HCl pH 7.6, 5 mm MgCl2, 1.5 mm KOAc, 2 mm dithiothreitol (DTT), and Halt Protease and Phosphatase inhibitor cocktail, EDTA-free (#78445, Thermo Scientific)] and buffer 2X (10 mm Tris•HCl pH 7.6, 1% Nonidet-P40, and Halt Protease and Phosphatase inhibitor cocktail), by vigorous vortexing and incubated on ice for 30 min. […] Protein concentrations were determined using the BioRad protein assay kit according to the manufacturer’s instructions. Steady-state levels of KRAS protein were determined by immunoblot analysis. […] Steady-state protein levels were expressed as mean ±SEM from at least three independent experiments.

F21T G4 = assay: FRET melting competition assay, labelled F21T; assay type: binding, human; details: ligand 1 μM, labelled F21T 0.2 μM
Experimental: To assess selectivity of the IQc compounds 2d and 3e to different DNA sequences, we performed competitive FRET experiments with 0.2 μM of labelled KRAS21R and F21T G4 and increasing concentrations of two non-fluorescent competitors, 26mer ds-DNA or the human telomeric sequence (HT21). A decrease in ΔTm indicates the displacement of the ligand from labelled G4 by the competitor DNA.
Figure 3 FRET melting competition assay data for (a) 2d and (b) 3e (1 μM) in complex with KRAS21R and F21T G4s (0.2 μM), with increasing concentrations of non-labeled 26ds, HT21 or KRAS21R (0.4 to 25 μM) competitor, in K-cacodylate buffer (pH 7.4, 60 mM K^+).
Oligonucleotide sequences were purchased from Eurofins MWG Synthesis GmbH, Germany or STAB VIDA Genomics Lab, Caparica, Lisbon, Portugal. The labelled oligonucleotides used in the FRET assays had attached the donor fluorophore FAM (6-carboxyfluorescein) and the acceptor fluorophore TAMRA (6-carboxytetramethylrhodamine): KRAS21R: 5′-FAM-[…]-TAMRA-3′; KRAS32R: 5′-FAM-[…]-TAMRA-3′; UTR-1: 5′-FAM-GCGGCGGCGGAGG-TAMRA-3′; UTR-2: 5′-FAM-[…]-TAMRA-3; T-Loop:5′-FAM-[…]-TAMRA-3′; F21T: 5′-FAM-[…]-TAMRA-3′. Non-labelled oligonucleotides were used in FRET competition assays and in the spectroscopic studies: ds26: - d(5′-CAATCGGATCGAATT CGATCCGATTG-3′); KRAS21R: 5′-[…]-3′; HT21: 5′-[…]-3′. […]

[2] = system: HT21 (DNA, G4) GGGTTAGGGTAGGGTTAGGG; assay: circular dichroism; details: 60 mM K+; K-cacodylate pH 7.4, 25 °C; hybrid G4 changes to antiparallel

| Compound | KRAS protein levels reduced to (% remaining) [1] | Concentration of competitor KRAS21R reducing the induced thermal stability of F21T by 50% (F21T G4) | binding [2] |
| --- | --- | --- | --- |
| CCN(CC)CCCNc1ccc2c(c1)c1[nH]c3ccccc3c1c[n+]2C [2d] | ~ 50% | – | – |
| CCN(CC)CCCNc1ccc2c(c1)[nH]c1c2c[n+](C)c2ccc(NCCCN(CC)CC)cc12.[Cl-] [3e] | – | 2 µM | yes |
